Calls of active or inactive are those of the source. The rule behind the calls is not given here. Numbered stars: 1 amine (or outer) side, 2 acyl side, 3 side chain; on linkers, the order of the positions; unused ones are H or OH. Square brackets hold non-standard residues; d marks the D form. Peptide text beside a SMILES is read from it. X1 = O=C(c1ccc(C[C@H](N[*:1])C(=O)[*:2])cc1)P(=O)(O)O

Data set [1] is described as follows: Photodimerization of the compound exposed to UV irradiation in presence of TEMPO radical. The data set is classed as physicochemical.
The nature of data set [2]: Photodimerization of the compound exposed to UV irradiation in presence of DTT. The data set is classed as physicochemical.
Data set [3] deals with T1, Tyrosine-protein phosphatase non-receptor type 1 (Homo sapiens, UniProt P18031).
T1 sequence (P18031 whole entry): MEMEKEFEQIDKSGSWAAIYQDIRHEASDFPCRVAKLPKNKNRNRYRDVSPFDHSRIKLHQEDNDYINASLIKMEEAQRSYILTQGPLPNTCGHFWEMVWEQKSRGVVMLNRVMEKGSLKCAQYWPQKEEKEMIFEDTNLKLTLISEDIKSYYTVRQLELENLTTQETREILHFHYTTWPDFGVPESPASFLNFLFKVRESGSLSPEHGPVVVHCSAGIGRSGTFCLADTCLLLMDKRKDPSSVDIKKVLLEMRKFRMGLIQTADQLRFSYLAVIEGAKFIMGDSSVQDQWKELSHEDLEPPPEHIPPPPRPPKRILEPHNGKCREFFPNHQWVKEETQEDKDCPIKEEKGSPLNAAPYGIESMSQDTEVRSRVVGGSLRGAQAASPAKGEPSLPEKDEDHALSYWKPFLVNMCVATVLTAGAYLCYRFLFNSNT
The data set can be described thus: Inhibition of PTP1B catalytic domain (1 to 321 amino acids) (unknown origin) expressed in Escherichia coli Rosetta (DE3) incubated for 30 mins followed by UV irradiation with 365 nm for 45 mins in presence of 1 mM DTT by pNPP assay.

The target in data set [4] is T1, Tyrosine-protein phosphatase non-receptor type 1. The data set can be described thus: Inhibition of PTP1B catalytic domain (1 to 321 amino acids) (unknown origin) expressed in Escherichia coli Rosetta (DE3) incubated for 30 mins in absence of UV irradiation with 365 nm for 45 mins and in presence of 1 mM DTT by pNPP assay.
In data set [5] the target is T2, Tyrosine-protein phosphatase non-receptor type 1 (Homo sapiens) (UniProt P18031).
T2 sequence (whole entry): T1 sequence (P18031 whole entry)
Particulars: 35 uM.
Description: Inhibition of PTP1B catalytic domain (1 to 321 amino acids) (unknown origin) expressed in Escherichia coli Rosetta (DE3) at 35 uM incubated for 30 mins followed by UV irradiation with 365 nm for 45 mins in presence of 100 uM DTT by pNPP assay

Data set [6] concerns the target T1, Tyrosine-protein phosphatase non-receptor type 1. The data set can be described thus: Inhibition of PTP1B catalytic domain (1 to 321 amino acids) (unknown origin) expressed in Escherichia coli Rosetta (DE3) incubated for 30 mins followed by UV irradiation with 365 nm for 45 mins by pNPP assay.
Data set [7] shares this target. The data set can be described thus: Inhibition of PTP1B catalytic domain (1 to 321 amino acids) (unknown origin) expressed in Escherichia coli Rosetta (DE3) incubated for 30 mins in absence of UV irradiation with 365 nm for 45 mins by pNPP assay.
Data set [8] has as its target T2, Tyrosine-protein phosphatase non-receptor type 1 (Homo sapiens). Particulars: 10 uM.
Description: Inhibition of PTP1B catalytic domain (1 to 321 amino acids) (unknown origin) expressed in Escherichia coli Rosetta (DE3) at 10 uM incubated for 30 mins followed by UV irradiation with 365 nm for 45 mins in presence of 1 mM DTT by pNPP assay
For data set [9] the target is unchanged. Particulars: 10 uM. This is another data set of the same source.
Description: Inhibition of PTP1B catalytic domain (1 to 321 amino acids) (unknown origin) expressed in Escherichia coli Rosetta (DE3) at 10 uM incubated for 30 mins followed by UV irradiation with 365 nm for 45 mins by pNPP assay

As for `Cc1ccc(C(=O)P(=O)(O)O)cc1`, the Activity result in data set [1] and in data set [2] was “Not Active” each time.

Take `CC(=O)N[C@@H](CC(=O)O)C(=O)N[C@@H](C)C(=O)N[C@@H](CC(=O)O)C(=O)N[C@@H](CCC(=O)O)C(=O)N[C@@H](Cc1ccc(C(=O)P(=O)(O)O)cc1)C(=O)N[C@@H](CC(C)C)C(N)=O` (Ac-DADE[X1]L-NH2): the Ki in data set [3] stood at 12.9 µM; in [4], 17.3 µM; in [6], 0.39 µM; in data set [7], 30 µM. In addition, in data set [5], the inhibition entry is “inactive”.

`CC[C@H](C)[C@H](NC(=O)[C@H](Cc1ccc(C(=O)P(=O)(O)O)cc1)NC(=O)[C@H](CC(N)=O)NC(C)=O)C(=O)N[C@@H](CC(=O)O)C(=O)N[C@@H](CC(C)C)C(=O)N[C@@H](CC(=O)O)C(N)=O` (Ac-N[X1]IDLD-NH2): the Ki in data set [6] was 0.41 µM; in data set [7], 48.8 µM. Further, the inhibition result in [8] is “inactive”. In addition, the inhibition result in data set [9] is “Active”.

For the origin of these results see ChEMBL document CHEMBL3425466, “Light-switched inhibitors of protein tyrosine phosphatase PTP1B based on phosphonocarbonyl phenylalanine as photoactive phosphotyrosine mimetic” (Bioorg Med Chem, 2015).
